The test system of data set [1] is BC3-luc pleural effusion lymphoma cells. In words: Orthotopic xenograft model of pleural effusion lymphoma. Type of data set: in vivo. Conditions: NOD-SCID mice. The method, then:
An orthotopic xenograft model of pleural effusion lymphoma was used to assess the anti-tumor activities of compounds 15, 21 and 22. Female NOD-SCID mice (Charles River, France) were injected intraperitoneally with pleural effusion lymphoma cells carrying a stable NF-kappaB regulated luciferase reporter (BC3-luc cells) (Keller et al., 2006). The tumors were allowed to establish for three days after which the mice were imaged and divided into treatment (groups 4-5 mice per group). The compound treatments were initiated on day four. The mice received 2 mg/kg (cmp21) or 20 mg/kg (cmp15 and 22) every other/third day for seven times via i.p. injections, control mice received DMSO only. The mice were imaged prior to each compound injection. Imaging was carried out with Xenogen In Vivo Imaging System (IVIS), D-luciferin (Synchem OHG, Germany) was injected intraperitoneally (100 mg/kg) 10-15 min prior to each imaging. Quantitation was done using Igor Pro Carbon analysis software, bioluminescence was quantitated and plotted as total flux within a given ROI.

Data set [2] in a line: In vivo toxicity tests. As to conditions: mice; for toxicity by weight curves, macroscopical pathologies, hematoxylin-eosin staining of tissues: 9 doses/3 weeks. The method, then: Acute and chronic toxicity of the compounds was tested on FVB/N mice. Female mice of 4-6 weeks old were purchased from Harlan and 2 animals were used per compound dose. The mice were injected intraperitoneally with the compounds three times a week for three weeks in 30 microL DMSO. Two animals received vehicle only (=30 μL DMSO). The animals were weighed prior to injections and were monitored for any signs of toxicity, distress or unusual behaviour. The animals were sacrificed three days after receiving the final injection. The liver, kidney, spleen, small intestine and thymus were excised and fixed in 4% paraformaldehyde overnight, and processed into paraffin-blocks. Haematoxylin-eosin staining (HE staining) of the tissues was performed using standard immunohistological techniques.

Data set [3] relates to A375 melanoma (WTp53). Put plainly: WST-1 cell viability assay, A375. Format: cell-based. Conditions: Homo sapiens, A-375, 72 h; A375 melanoma (WTp53), three days, WST-1. The method, then:
(§1) The effect of the compounds selected using the screening assay on the viability of several tumor cell lines as well as diploid cell lines and cell strains was studied. Cells were plated in 96-well plates at a density of 10,000 cells/100 μL/well and were incubated overnight. The following day compound dilutions ranging from 0 to 40 μM were applied to the cells in triplicate and the cells were incubated with the compounds for three days. Cell viability was assayed using the WST-1 cell proliferation reagent (Roche Diagnostics, Germany) The WST-1 reagent was diluted 1:10 in cell culture media and 100 μL of the reagent dilution was applied onto cells followed by 1 hour incubation at +37° C. The specific absorbance was measured at 450 nm and a reference absorbance was measured at 690 nm. […] Analysis for Protein Levels

Data set [4] concerns p53, Mdm2 and p21 levels in A375 melanoma cells. Put plainly: Immunoblotting and immunofluorescence for p53, Mdm2 and p21 levels. Format: cell-based. Conditions: A375, 24 hours. The method, then: To study the effect of compounds on endogenous protein levels, A375 melanoma cells were treated with the compounds for 24 hours. Cellular lysates were prepared in lysis buffer containing 0.5% NP-40 with proteinase inhibitors. Protein (20-30 μg) was separated by sodium dodecyl sulphate-polyacrylamide gel electrophoresis (SDS-PAGE) followed by transfer to PVDF membrane (Immobilon™-P, Millipore, Bedford, Mass., USA). Immunoblotting was carried out using DO-1 antibody for p53, 2A10 for Mdm2 and anti-p21 (Becton Dickinson) to detect p21, followed by secondary antibodies conjugated with horseradish peroxidase (p53) or biotin followed by streptavidin-horseradish peroxidase (Mdm2 and p21) after which proteins were detected with enhanced chemiluminescence (ECL, Amersham Life Sciences). Equal protein loading was verified using GAPDH (p9.B.88, Europa Bioproducts Ltd, UK) as a protein loading control.
Immunofluorescence staining was carried out to determine the correct localisation of p53 and to detect H2AX phosphorylation indicative of genotoxic stress. Cells were treated with the compounds and fixed in paraformaldehyde (3.5 PFA, 25 min RT). The coverslips were permeabilised in 0.5% NP-40 and blocked in 3% bovine serum albumin (BSA). p53 was detected by staining with FL-393 antibody (Santa Cruz, 1:50, 1 h at +37° C.) followed by Alexa-594 conjugated secondary antibody (Molecular Probes, 1:200, 1 h at +37° C.), phospho-H2AX was detected by staining with anti-H2AX (P-Ser-139) antibody (Upstate, 1:200 1 h at +37° C.) followed by Alexa-488 conjugated secondary antibody (Molecular Probes, 1:200, 1 h at +37° C.). Nuclei were stained with Hoechst 33342. Images were captured using the Zeiss Axioplan fluorescence microscope equipped with Zeiss AxioCam HRc CCD-camera and AxioVision 4.5 software using 40×, NA=0,75 objective, Chroma 31000, Chroma41001 and 41004 filters for Hoechst, Alexa488 and Alexa594, respectively.
On the technique in general: In western blotting, separated proteins are transferred to a membrane and probed.

Data set [5] deals with WS-1 diploid fibroblast. Put plainly: WST-1 cell viability assay, WS-1. Format: cell-based, human. Conditions: Homo sapiens, 72 h, three days. The method, then:
as §1
Background: Tetrazolium dyes change colour on reduction, which living cells bring about.

In data set [6] the test system is normal human primary melanocytes. In words: WST-1 cell viability assay, melanocytes. Type of data set: cell-based. As to conditions: Homo sapiens, 72 h, Melanocyte, three days. The method, then: as §1
Data set [7] has as its system RPMI7951 (MUTp53). In words: WST-1 cell viability assay, RPMI-7951. As to conditions: Homo sapiens, RPMI-7951, 72 h, three days. Type of data set: cell-based. The method, then:
as §1

The subject of data set [8] is A375 melanoma cells. In words: Flow cytometry cell cycle and apoptosis analysis. Type of data set: cell-based. As for the experimental part:
Cell cycle analysis and cellular apoptosis was assayed with flow cytometry (LSR, Beckton Dickinson). Cells were treated with the compounds and both floating and adherent cells were harvested and fixed in 70% ethanol at −20° C. followed by staining of DNA with propidium iodide. A total of 10,000 counts were collected and data was analysed using ModFit LT 3.1 software. Cells present in sub-G1 population were regarded as apoptotic.
(In general: A flow cytometer gives signals particle by particle.)

For data set [9], the system named is Human intestinal endothelial cells. Put plainly: WST-1 cell viability assay, intestinal endothelial cells. Type of data set: cell-based. Conditions: Endothelial cell, 72 h, three days. As for the experimental part: as §1

Some results are limits rather than exact numbers.

On to `CN(C)CCNC(=O)c1cccn2c(=O)c3cc4ccccc4cc3nc12` [Compound 21], for which the “inhibition of tumor cell growth (bioluminescence)” value in data set [1] (2 mg/kg i.p. seven times) is “did not have any effect”. Further, the “acute or chronic toxicities based on histological HE-stainings” value in [2] (i.p., 0.5, 1, 2 mg/kg three times a week for three weeks) is reported as “No acute or chronic toxicities were observed”. Moreover, in data set [2] (i.p., 0.5, 1, 2 mg/kg), the “toxicity by weight curves, macroscopical pathologies, hematoxylin-eosin staining of tissues” value is listed as “did not show any apparent toxicity”. In addition, the IC50 (in general, the point on the concentration scale where inhibition reaches its midpoint) is 700 nM in data set [3]; 1.9 µM in data set [5]; over 40 µM in data set [6]; 3 µM in data set [7]; 2.7 µM in data set [9]. Also, the Mdm2 induction result in data set [4] (0.5 μM) is reported as “most prominent”. For the same molecule, in data set [4] (0.5 μM), the “induction of p21 cyclin kinase inhibitor” value is given as “most prominent”. In data set [8] (A375, 0.1 μM (three days) and 0.5 μM (six days)), the “cell cycle / apoptosis phenotype” value is “G2-phase arrest and apoptosis”.

For the molecule `Cc1cc(C)c2nc3nc(C)cc(C)c3c(N)c2c1` [Compound 22, 2,4,7,9-tetramethylbenzo[b]-1,8-naphthyridin-5-amine], the “inhibition of tumor cell growth (bioluminescence)” value in data set [1] (20 mg/kg i.p. seven times) is “noticeable inhibition of the tumor cell growth”. Also, the “acute or chronic toxicities based on histological HE-stainings” value in data set [2] (i.p., 5, 10 and 20 mg/kg three times a week for three weeks) is “No acute or chronic toxicities were observed”. Also, the “toxicity by weight curves, macroscopical pathologies, hematoxylin-eosin staining of tissues” value in [2] (i.p., 5, 10 and 20 mg/kg) is recorded as “did not show any apparent toxicity”. Moreover, the concentration for half-maximal inhibition (IC50) in [3] stood at 4600 nM; in data set [5], 11.5 µM; in data set [6], 32.2 µM; in data set [7], 13.3 µM; in [9], 14.5 µM. Moreover, in data set [4] (5 μM), the Mdm2 induction result is “most prominent”. Moreover, in [8] (A375, three days at 10 μM or six days at 5 μM), the “cell cycle / apoptosis phenotype” value was “G2-phase arrest and apoptosis”.

For the origin of these results see patent US10214491B2, “Activators and therapeutic applications thereof” (THE JOHNS HOPKINS UNIVERSITY, priority 2007, dated 2019).
